The values that follow come from patent publication US9101161B2, “High-potency sweetener composition with phytoestrogen and compositions sweetened therewith” (The Coca-Cola Company, priority 2006, dated 2015).

Series [1] is classed as physicochemical. How it is done: A solution of rebaudioside A (>97% pure by HPLC) was prepared in double distilled water (12.5 gm in 50 mL, 25% concentration) by stirring the mixture at 40° C. for 5 minutes. An amorphous form of rebaudioside A was formed by immediately using the clear solution for spray drying with the Lab-Plant spray drier SD-04 instrument (Lab-Plant Ltd., West Yorkshire, U.K.). The solution was fed through the feed pump into the nozzle atomizer which atomized it into a spray of droplets with the help of a constant flow of nitrogen/air. […] This dry powder (11-12 g, H2O, 6.74%) was discharged continuously from the drying chamber and was collected in a bottle.

Series [2] is described as follows: Rate of dissolution in H2O at 25° C. of rebaudioside A polymorph and amorphous forms. The class given is physicochemical.
Series [3] can be described thus: Sensory evaluation of sweetness linger, Example Set H (REBA in phosphoric acid solution pH 2.4-2.5). The class given is in vivo. Details: key: 0=no sweetness linger; 1=very slight sweetness linger; 2=slight sweetness linger; 3=moderate sweetness linger; 4=moderately high sweetness linger; 5 high sweetness linger. The note with it: 500 ppm REBA (H41: 360 ppm) in carbon-treated water, phosphoric acid (75%) to pH 2.4-2.5, plus additive; scale 0-5.

The nature of series [4]: Sensory evaluation of sweetness linger, Example Set G (REBA in citric acid/potassium citrate composition). Details: key: 0=no sweetness linger; 1=very slight sweetness linger; 2=slight sweetness linger; 3=moderate sweetness linger; 4=moderately high sweetness linger; 5 high sweetness linger. The class given is in vivo. As to conditions: for sweetness linger: 400 ppm REBA in citric acid/potassium citrate composition equivalent to diet lemon-lime beverage, plus additive, expert panel, scale 0-5, sweetness 3-4 min after water rinse; for Sweetness Linger rating defined for controls: defined by the protocol, sucrose, 500 ppm REBA control sample. How it is done:
Sensory evaluation of the samples prepared in Example Set G was carried out under the following protocol, similar to that described hereinabove. In this test protocol, none of the samples were swallowed. All samples were expectorated and the mouth was rinsed with water after the tasting, Immediately upon sensing maximal sweetness, the sample was expectorated, the mouth was rinsed with water and the rate of sweetness decay (“Sweetness Linger”) was measured, where attention was focused on the sweetness 3-4 min after the water rinse. After sample tasting was complete, a salty oyster cracker was chewed followed by a water rinse, and at least 5 minutes followed before tasting the next sample. The sweetness linger was rated by a panel of experts in the sensory evaluation of foods and beverages using the following scale: 0=no sweetness linger, 1=very slight sweetness linger, 2=slight sweetness linger, 3=moderate sweetness linger, 4=moderately high sweetness linger, 5 high sweetness linger.
The “Sweetness Linger” rating for sucrose observed by this protocol is defined as 0. The Sweetness Linger of a 500 ppm of REBA control sample is defined as 5. Experimental samples were tasted by the same protocol, always allowing sufficient time between samples to ensure re-equilibration of the sensory system. Re-tasting of control samples during the course of the experiment was allowed and encouraged.
The comparison taste test was performed between two controls and addition of sweet taste improving additive on the onset and/or sweetness linger.
The effects of formulation change on the sweetness linger of 400 ppm REBA (equivalent to 8 g sucrose) in a citric acid/potassium citrate composition equivalent to that in a diet lemon-lime beverage were evaluated. The sweetness linger rating of this solution was determined to be 5.
8 g of sugar was dissolved in 100 ml of citrate buffer. The sweetness linger rating of this control sample was determined to be 0.

Series [5] can be described thus: Sweetness level as sucrose equivalent. As to conditions: 400 ppm REBA.

Some results are limits rather than exact numbers.

Consider rebaudioside A [Form 4], for which, in series [1], the “solubility in water at room temperature” value is over 35.0%. Moreover, the “Rate of dissolution in H2O at 25° C.” value in series [2] (H2O, 25° C.) is over 35 %/5 minutes; in series [2] (grade in words), “High”.
As to rebaudioside A [Form 2], the “Rate of dissolution in H2O at 25° C.” value in series [2] (H2O, 25° C.) is on record as “(<30%/5 %/5 minutes”; in series [2] (grade in words), “Intermediate”.
As to rebaudioside A [Form 3], the “Rate of dissolution in H2O at 25° C.” value in series [2] (H2O, 25° C.) is over 30 %/5 minutes; in series [2] (grade in words) it was “High”.
In the case of rebaudioside A [Form 1], the “Rate of dissolution in H2O at 25° C.” value in series [2] (H2O, 25° C.) is given as “(<0.2%/60 %/60 minutes”; in series [2] (grade in words), “Very low”.
Regarding `OC[C@H]1O[C@@](CO)(O[C@H]2O[C@H](CO)[C@@H](O)[C@H](O)[C@H]2O)[C@@H](O)[C@@H]1O` [sucrose], in series [3], the sweetness linger is 0. Further, in series [4], the sweetness linger amounted to 0 and the “Sweetness Linger rating defined for controls” value is listed as 0.
Take rebaudioside A: the sucrose equivalent in series [5] is 8 g sucrose. Besides, in series [3], the sweetness linger worked out at 5. In addition, in series [4], the sweetness linger is recorded as 5 and the “Sweetness Linger rating defined for controls” value stood at 5.
